Experimental data: paper PMC7587356, “High-Throughput Screening for Inhibitors of the SARS-CoV-2 Protease Using a FRET-Biosensor” (Molecules, 2020)
Where a name gives a salt, the structure may show the parent alone. Read-outs that look alike come from different tables or passages of the source.

Molecular target: SARS-CoV-2 3CLpro (Severe acute respiratory syndrome coronavirus 2, UniProt P0DTD1)
Assay: biochemical
Format: biochemical
Set-up: Replicate_1 / Replicate_2 / mean / mean (LOPAC_screen_w_protease): unit not given here
Settings: for inhibition at 5 µM: 4 h
[1] = read-out: Replicate_1 (LOPAC_screen_w_protease)
[2] = read-out: Replicate_2 (LOPAC_screen_w_protease)
[3] = LOPAC1280 primary screen with protease, 5 µM compound, replicate 1, read-out: Replicate_1 (LOPAC_screen_w_protease)
[4] = LOPAC1280 primary screen with protease, 5 µM compound, replicate 2, read-out: Replicate_2 (LOPAC_screen_w_protease)
[5] = LOPAC1280 primary screen with protease, 5 µM compound, mean of two replicates
[6] = sheet LOPAC_screen_w_protease, primary screen with protease, compound at 5 µM, mean of two replicates
[7] = sheet LOPAC_screen_w_protease, primary screen with protease, compound at 5 µM, replicate 1
[8] = sheet LOPAC_screen_w_protease, primary screen with protease, compound at 5 µM, replicate 2
[9] = LOPAC1280 primary screen with protease, 5 µM compound, replicate 1
[10] = LOPAC1280 primary screen with protease, 5 µM compound, replicate 2
[11] = sheet LOPAC_screen_w_protease, primary screen with protease, mean of two replicates, read-out: mean
[12] = sheet LOPAC_screen_w_protease, primary screen with protease, replicate 1, read-out: Replicate_1
[13] = sheet LOPAC_screen_w_protease, primary screen with protease, replicate 2, read-out: Replicate_2
[14] = sheet LOPAC_screen_w_protease, LOPAC1280 at 5 µM, mean of two replicates, read-out: mean
[15] = sheet LOPAC_screen_w_protease, LOPAC1280 at 5 µM, replicate 1, read-out: Replicate_1
[16] = sheet LOPAC_screen_w_protease, LOPAC1280 at 5 µM, replicate 2, read-out: Replicate_2
[17] = sheet LOPAC_screen_w_protease, primary screen of LOPAC1280 at 5 µM with protease, mean of the two replicates, read-out: mean
[18] = sheet LOPAC_screen_w_protease, primary screen of LOPAC1280 at 5 µM with protease, replicate 1, read-out: Replicate_1
[19] = sheet LOPAC_screen_w_protease, primary screen of LOPAC1280 at 5 µM with protease, replicate 2, read-out: Replicate_2
[20] = sheet LOPAC_screen_w_protease, primary screen with protease, compound at 5 µM, mean of two replicates, read-out: mean
[21] = sheet LOPAC_screen_w_protease, primary screen with protease, compound at 5 µM, replicate 1, read-out: Replicate_1
[22] = sheet LOPAC_screen_w_protease, primary screen with protease, compound at 5 µM, replicate 2, read-out: Replicate_2
[23] = LOPAC1280 primary screen with protease, 5 µM compound, mean of the two replicates

NC(=O)N1c2ccccc2C=Cc2ccccc21 [Carbamazepine]
mean (LOPAC_screen_w_protease): 1.395
inhibition at 5 µM [1]: 1.4%
inhibition at 5 µM [2]: 1.39%

CCN(CC)CCOCCOC(=O)C1(c2ccccc2)CCCC1 [Carbetapentane citrate]
inhibition at 5 µM [3]: 2.35%
inhibition at 5 µM [4]: 1.05%
mean (LOPAC_screen_w_protease) [5]: 1.698

N.N.O=C([O-])C1(C(=O)[O-])CCC1.[Pt+2] [Carboplatin]
mean [6]: 2.889
Replicate_1 [7]: 1.772
Replicate_2 [8]: 4.006

Cl.Cl.NCCC(=O)NCCc1c[nH]cn1 [Carcinine dihydrochloride]
mean (LOPAC_screen_w_protease) [5]: 1.47
Replicate_1 (LOPAC_screen_w_protease) [9]: -0.04434
Replicate_2 (LOPAC_screen_w_protease) [10]: 2.985

CCCC(C)(COC(N)=O)COC(=O)NC(C)C (stereo not drawn) [Carisoprodol]
inhibition at 5 µM (read-out: Replicate_1): -0.28%
inhibition at 5 µM (read-out: Replicate_2): 2.2%
inhibition at 5 µM (read-out: mean): 0.96%

N[C@@H](C(=O)N[C@@H]1C(=O)N2C(C(=O)O)=C(Cl)CS[C@H]12)c1ccccc1 [Cefaclor]
inhibition at 5 µM (read-out: Replicate_1 (LOPAC screen with protease)): 13.9%
inhibition at 5 µM (read-out: Replicate_2 (LOPAC screen with protease)): 11.6%
inhibition at 5 µM (read-out: mean (LOPAC screen with protease)): 12.7%

CO[C@@]1(NC(=O)CSCC#N)C(=O)N2C(C(=O)O)=C(CSc3nnnn3C)CS[C@@H]21 [Cefmetazole sodium]
inhibition at 5 µM [3]: 1.13%
inhibition at 5 µM [4]: 2.27%
mean (LOPAC_screen_w_protease) [5]: 1.702

CO/N=C(\C(=O)N[C@@H]1C(=O)N2C(C(=O)O)=C(COC(C)=O)CS[C@H]12)c1csc(N)n1 [Cefotaxime sodium]
inhibition at 5 µM [11]: 2.42%
inhibition at 5 µM [12]: 1.54%
inhibition at 5 µM [13]: 3.3%

NC(=O)c1cc[n+](CC2=C(C(=O)[O-])N3C(=O)[C@@H](NC(=O)C(c4ccccc4)S(=O)(=O)[O-])[C@H]3SC2)cc1.O.[Na+] (stereo partly drawn) [Cefsulodin sodium salt hydrate]
mean [6]: 2.816
Replicate_1 [7]: 2.052
Replicate_2 [8]: 3.58

CN(C)CCOC(=O)COc1ccc(Cl)cc1 [Centrophenoxine hydrochloride]
inhibition at 5 µM [14]: 1.27%
inhibition at 5 µM [15]: 1.82%
inhibition at 5 µM [16]: 0.724%

CC1=C(C(=O)O)N2C(=O)[C@@H](NC(=O)[C@H](N)c3ccccc3)[C@H]2SC1.O [Cephalexin hydrate]
mean (LOPAC_screen_w_protease) [5]: 1.619
Replicate_1 (LOPAC_screen_w_protease) [9]: 2.163
Replicate_2 (LOPAC_screen_w_protease) [10]: 1.074

CC(=O)OCC1=C(C(=O)[O-])N2C(=O)[C@@H](NC(=O)CCC[C@@H](N)C(=O)[O-])[C@H]2SC1.[Zn+2] [Cephalosporin C zinc salt]
mean (sheet LOPAC_screen_w_protease, primary screen with protease, 5 µM, mean of two replicates): 0.2554
Replicate_1 (sheet LOPAC_screen_w_protease, primary screen with protease, 5 µM, replicate 1): 0.7755
Replicate_2 (sheet LOPAC_screen_w_protease, primary screen with protease, 5 µM, replicate 2): -0.2647

CC(=O)OCC1=C(C(=O)O)N2C(=O)[C@@H](NC(=O)Cc3cccs3)[C@H]2SC1 [Cephalothin sodium]
inhibition at 5 µM (sheet LOPAC_screen_w_protease, LOPAC1280 primary screen with protease, 5 µM compound, mean of the two replicates, read-out: mean): 5.22%
inhibition at 5 µM (sheet LOPAC_screen_w_protease, LOPAC1280 primary screen with protease, 5 µM compound, replicate 1, read-out: Replicate_1): 4.83%
inhibition at 5 µM (sheet LOPAC_screen_w_protease, LOPAC1280 primary screen with protease, 5 µM compound, replicate 2, read-out: Replicate_2): 5.61%

CC(=O)OCC1=C(C(=O)O)N2C(=O)[C@@H](NC(=O)CSc3ccncc3)[C@H]2SC1 [Cephapirin sodium]
inhibition at 5 µM [17]: 4.07%
inhibition at 5 µM [18]: 3.36%
inhibition at 5 µM [19]: 4.79%

CC1=C(C(=O)O)N2C(=O)[C@@H](NC(=O)[C@H](N)C3=CCC=CC3)[C@H]2SC1 [Cephradine]
inhibition at 5 µM [20]: 3.13%
inhibition at 5 µM [21]: 2.84%
inhibition at 5 µM [22]: 3.42%

COc1ccc2c(c[n+](C)c3c4cc5c(cc4ccc23)OCO5)c1OC [Chelerythrine chloride]
inhibition at 5 µM (sheet LOPAC_screen_w_protease, primary screen at 5 µM, mean of two replicates, read-out: mean (LOPAC screen with protease)): 11.5%
inhibition at 5 µM (sheet LOPAC_screen_w_protease, primary screen at 5 µM, replicate 1, read-out: Replicate_1 (LOPAC screen with protease)): 12.7%
inhibition at 5 µM (sheet LOPAC_screen_w_protease, primary screen at 5 µM, replicate 2, read-out: Replicate_2 (LOPAC screen with protease)): 10.3%

O=C(O)c1cc(O)cc(C(=O)O)n1 [Chelidamic acid]
inhibition at 5 µM [20]: 3.14%
inhibition at 5 µM [21]: 2.7%
inhibition at 5 µM [22]: 3.58%

CN1C(=O)CCS(=O)(=O)C1c1ccc(Cl)cc1 (stereo not drawn) [Chlormezanone]
inhibition at 5 µM (sheet LOPAC_screen_w_protease, LOPAC1280 primary screen at 5 µM, with protease, mean of the two replicates, read-out: mean): 0.463%
inhibition at 5 µM (sheet LOPAC_screen_w_protease, LOPAC1280 primary screen at 5 µM, with protease, replicate 1, read-out: Replicate_1): 2.15%
inhibition at 5 µM (sheet LOPAC_screen_w_protease, LOPAC1280 primary screen at 5 µM, with protease, replicate 2, read-out: Replicate_2): -1.22%

CNC(=O)[C@H]1O[C@@H](n2cnc3c(NCc4cccc(I)c4)nc(Cl)nc32)[C@H](O)[C@@H]1O [Chloro-IB-MECA]
inhibition at 5 µM [17]: 3.22%
inhibition at 5 µM [18]: 4.25%
inhibition at 5 µM [19]: 2.19%

CCN(CC)CCCC(C)Nc1ccnc2cc(Cl)ccc12 (stereo not drawn) [Chloroquine diphosphate]
inhibition at 5 µM (read-out: Replicate_1): 2.19%
inhibition at 5 µM (read-out: Replicate_2): 3.74%
inhibition at 5 µM (read-out: mean): 2.97%

NS(=O)(=O)c1cc2c(cc1Cl)N=CNS2(=O)=O [Chlorothiazide]
inhibition at 5 µM [14]: 0.892%
inhibition at 5 µM [15]: 1.61%
inhibition at 5 µM [16]: 0.17%

CN(C)CCCN1c2ccccc2Sc2ccc(Cl)cc21 [Chlorpromazine hydrochloride]
inhibition at 5 µM (read-out: Replicate_1): 0.794%
inhibition at 5 µM (read-out: Replicate_2): 0.374%
inhibition at 5 µM (read-out: mean): 0.584%

CCCNC(=O)NS(=O)(=O)c1ccc(Cl)cc1 [Chlorpropamide]
inhibition at 5 µM [3]: 1.51%
inhibition at 5 µM [4]: 2.73%
mean (LOPAC_screen_w_protease) [23]: 2.118

CN(C)CC/C=C1/c2ccccc2Sc2ccc(Cl)cc21 [Chlorprothixene hydrochloride]
inhibition at 5 µM [14]: 1.25%
inhibition at 5 µM [15]: 0.326%
inhibition at 5 µM [16]: 2.17%

C[N+](C)(C)CCO.[Br-] [Choline bromide]
Replicate_1: 2.262
Replicate_2: 3.547
mean: 2.905

CN(C(=O)CCCOc1ccc2[nH]c(=O)ccc2c1)C1CCCCC1 [Cilostamide]
inhibition at 5 µM [11]: 2.23%
inhibition at 5 µM [12]: 1.11%
inhibition at 5 µM [13]: 3.35%

O=C1CCc2cc(OCCCCc3nnnn3C3CCCCC3)ccc2N1 [Cilostazol]
inhibition at 5 µM [11]: 2.16%
inhibition at 5 µM [12]: 1.9%
inhibition at 5 µM [13]: 2.42%

CN/C(=N/CCSCc1nc[nH]c1C)NC#N [Cimetidine]
inhibition at 5 µM (read-out: Replicate_1): 1.76%
inhibition at 5 µM (read-out: Replicate_2): 2.91%
inhibition at 5 µM (read-out: mean): 2.34%

CCn1nc(C(=O)O)c(=O)c2cc3c(cc21)OCO3 [Cinoxacin]
inhibition at 5 µM [3]: -0.0118%
inhibition at 5 µM [4]: 4.09%
mean (LOPAC_screen_w_protease) [23]: 2.037

CC(C)(Oc1ccc(C2CC2(Cl)Cl)cc1)C(=O)O (stereo not drawn) [Ciprofibrate]
inhibition at 5 µM [11]: 2.4%
inhibition at 5 µM [12]: 2.2%
inhibition at 5 µM [13]: 2.6%

c1ccc(C2CC2)c(OCC2=NCCN2)c1 [Cirazoline hydrochloride]
inhibition at 5 µM [3]: 2.66%
inhibition at 5 µM [4]: 1%
mean (LOPAC_screen_w_protease) [23]: 1.832

CN(C)CCCC1(c2ccc(F)cc2)OCc2cc(C#N)ccc21 (stereo not drawn) [Citalopram hydrobromide]
inhibition at 5 µM [14]: 1.26%
inhibition at 5 µM [15]: 1.98%
inhibition at 5 µM [16]: 0.536%

C[N+](C)(C)CCOP(=O)([O-])OP(=O)([O-])OC[C@H]1O[C@@H](n2ccc(N)nc2=O)[C@H](O)[C@@H]1O.[Na+] [Citicoline sodium]
mean (LOPAC_screen_w_protease) [23]: 2.039
Replicate_1 (LOPAC_screen_w_protease) [9]: 0.6867
Replicate_2 (LOPAC_screen_w_protease) [10]: 3.392

Cl.Clc1ccc(Cn2c(CN3CCCC3)nc3ccccc32)cc1 [Clemizole hydrochloride]
mean [6]: 3.083
Replicate_1 [7]: 2.873
Replicate_2 [8]: 3.2929

O=P(O)(O)C(Cl)(Cl)P(=O)(O)O [Clodronic acid]
inhibition at 5 µM [3]: 2.04%
inhibition at 5 µM [4]: 1.36%
mean (LOPAC_screen_w_protease) [5]: 1.697

CCOC(=O)C(C)(C)Oc1ccc(Cl)cc1 [Clofibrate]
inhibition at 5 µM [20]: 2.71%
inhibition at 5 µM [21]: 1.49%
inhibition at 5 µM [22]: 3.93%

Clc1cccc(Cl)c1N=C1NCCN1 [Clonidine hydrochloride]
mean (LOPAC_screen_w_protease): 1.822
inhibition at 5 µM [1]: 1.42%
inhibition at 5 µM [2]: 2.22%

Clc1ccccc1C(c1ccccc1)(c1ccccc1)n1ccnc1 [Clotrimazole]
inhibition at 5 µM (read-out: Replicate_1): 3.08%
inhibition at 5 µM (read-out: Replicate_2): 3.07%
inhibition at 5 µM (read-out: mean): 3.07%
